Test results reported in patent US20260216361A1, “NANOBODY-DRUG CONJUGATES AND METHODS OF PREPARING THEREOF” (Vanderbilt University, priority 2022, published 2026).
Read-outs that look alike come from different tables or passages of the source.

Assays:
[1] = Pharmacokinetics of Cy5 dye and nanobody-Cy5 conjugates in healthy mice; assay type: in vivo, mouse; conditions: 2 mg/kg I.V., healthy female C57BL/6 mice
Description: Pharmacokinetics and Ex Vivo Imaging Experiments. Healthy (Balb/c or C57BL/6) and EMT6 tumor bearing (Balb/c) mice were injected with 100 μL of Cy5 (either as free dye or as a nanobody conjugate) at a dose of 2 mg/kg intravenously. Blood draws were taken using heparinized capillary tubes (DWK Life Sciences) at discrete time points up to five days after injection. 1 μL of blood was mixed with 50 μL of PBS, centrifuged, and the diluted plasma was collected for analysis. Prescence of Cy5 was determined by fluorescence intensity using a plate reader, with an excitation wavelength of 645 nm and an emission wavelength of 675 nm. Pharmacokinetic analysis was performed in GraphPad Prism (V10) using either a one-phase decay or two-phase decay, in which the reported half-life is the second phase (elimination). Biodistribution studies were performed by excising and weighing hearts, lungs, livers, spleens, kidneys, and tumors. Tissue were washed in 1× PBS and transferred to the stage of the IVIS Lumina Ill (PerkinElmer). Fluorescence (radiant efficiency) was measured with a maximum value of 1.56×10^10, and a minimum of 8.21×10^8, and areas were drawn for organs to generate average radiant efficiency values (per cm^2) using the Living Image software (version 4.5). […] Images were taken on the IVIS and luminescence was quantified as total radiant flux (p/s) for each set of lungs.

[2] = cited from earlier work
EMT6 tumors = experiment: Orthotopic EMT6 breast tumor model; assay type: in vivo, mouse; conditions: nanobody carriers I.V. 1.25 μg agonist; ICB 100 μg intraperitoneally; Balb/c
Description: Evaluation of Nanobodies in Tumor Models. 6-8-week C57BL/6 mice (The Jackson Laboratory) were inoculated with B16.F10, B16.F10-LUC, or B16.F10-OVA models. For EMT6 models, 6-8 week Balb/C female mice (The Jackson Laboratory) were used. Tumors were generated in B16.F10 and B16.F10-OVA models by subcutaneous injection of 5×10^5 cancer cells, suspended in 100 μL of PBS, at the right flank side of the mouse. B16.F10-LUC inoculations were performed by intravenous (I.V.) injection at a volume of 100 μL and using 1×10^6 cancer cells. EMT6 inoculations were orthotopic and placed at the left-side 4th mammary fat pad at a volume of 100 μL and using […]. When the volume of tumors reached ~75-100 mm^3, mice were treated by I.V. injection of nanobodies or free diABZT compound 3 (using 40% PEG400 as an excipient for free diABZI, Sigma), or intraperitoneal (I.P) injection of commercial anti-PD-L1 IgG (Clone BEO101, Bio X Cell) (100 μL per injection). Tumor volume calculations were calculated using Vtumor=L×W2×0.5, in which Vtumor is tumor volume, L is tumor length, and W is tumor width. Tumor volume, total murine mass, and murine well-being were recorded for the duration of the study. The endpoint for maximum tumor volume (i.e. survival) during studies was 1500 mm^3.

CC1(C)C(/C=C/C=C/C=C2/N(CCCCCC(=O)NCCC(=O)N3Cc4ccccc4C#Cc4ccccc43)c3ccc(S(=O)(=O)O)cc3C2(C)C)=[N+](CCCS(=O)(=O)[O-])c2ccc(S(=O)(=O)O)cc21 [DBCO-Cy5, reference compound]
elimination half-life [1]: approximately 5 minutes

CCn1nc(C)cc1C(=O)Nc1nc2cc(C(N)=O)cc(OC)c2n1C/C=C/Cn1c(NC(=O)c2cc(C)nn2CC)nc2cc(C(N)=O)cc(OCCCN3CCOCC3)c21 [diABZI, reference compound]
half-life ([2]; in vivo): ~ 90 minutes | tumor growth (EMT6 tumors): did not confer a therapeutic benefit

serum albumin
half-life ([2]; in mice): 35 to 40 h
